Test results published in ChEMBL document CHEMBL1201862, “PubChem BioAssay data set” (2004).
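96-well plates; 48 h exposure; 5 concentrations. Endpoints by linear interpolation between flanking doses. Not reached: highest tested concentration assigned. Here, GI50 denotes the concentration required for 50% inhibition of growth.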 Activity calls are given as the source filed them. Cut-off read from the data, not from the text of the source: active = GI50 up to about 1.1 µM and inactive = higher.

What was measured:
Experiment in all cases: NCI anticancer screen, dose series, 48 h
[1] = tested on: NCI-H226
[2] = tested on: U-251
[3] = tested on: HCC 2998
[4] = tested on: RPMI-8226
[5] = tested on: UACC-62
[6] = tested on: SK-MEL-5
[7] = tested on: TK-10
[8] = tested on: ACHN
[9] = tested on: 786-0
[10] = tested on: SF-539
[11] = tested on: OVCAR-8
[12] = tested on: UO-31
[13] = tested on: CAKI-1
[14] = tested on: A549
[15] = tested on: RXF 393
[16] = tested on: A498
[17] = tested on: SK-OV-3

Measured: GI50

COC[n+]1cc2cc(OC)c(OC)cc2c2ccc3cc(OC)c(OC)cc3c21
inactive: [1] > 100 µM | [2] > 100 µM | [3] > 100 µM | [4] > 100 µM | [5] > 100 µM | [6] > 100 µM | [7] > 100 µM | [8] > 100 µM | [9] > 100 µM | [10] > 100 µM | [11] > 100 µM | [12] > 100 µM | [13] > 100 µM | [14] > 100 µM | [15] > 100 µM

NCCn1ccc(NC(c2ccccc2)(c2ccccc2)c2ccccc2)nc1=O
inactive: [1] 15.8 µM | [2] 20.7 µM | [3] 18 µM | [4] 18.6 µM | [7] 30 µM | [8] 54.7 µM | [16] 65.5 µM | [9] 17.3 µM | [10] 17 µM | [11] 39.8 µM | [12] > 100 µM | [14] 25.2 µM | [15] 4.08 µM

CCOC(=O)C1S/C(=N\c2ccccc2)N=C1C (stereo not given)
inactive: [1] 74 µM | [2] > 100 µM | [3] > 100 µM | [4] 51.2 µM | [7] > 100 µM | [8] 39.7 µM | [16] > 100 µM | [9] 77.8 µM | [10] 73.5 µM | [11] > 100 µM | [12] 53.3 µM | [14] 55.5 µM | [15] > 100 µM

COc1ccc(/C=N/NC(=O)CSc2nc(-c3ccccc3)c(-c3ccccc3)[nH]2)cc1OC
inactive: [1] 30.8 µM | [2] 25.6 µM | [4] 20.3 µM | [5] 23.5 µM | [6] 17.5 µM | [7] 35.4 µM | [8] 31.3 µM | [16] 26.6 µM | [9] 28.7 µM | [10] 22.4 µM | [11] 16.2 µM | [12] 25.5 µM | [13] 33.1 µM | [14] 45.9 µM | [17] 26.4 µM | [15] 20.1 µM

O/N=C\C(=N/O)Nc1ccc(Cc2ccc(NC(/C=N\O)=N/O)cc2)cc1
inactive: [1] 18.1 µM | [2] 37.5 µM | [3] 83.9 µM | [4] 30.5 µM | [5] 21.2 µM | [6] 48.3 µM | [7] 45.2 µM | [8] 31.6 µM | [16] 77.4 µM | [9] 58.6 µM | [10] 45.2 µM | [11] 36.1 µM | [12] 13.2 µM | [13] 18.8 µM | [14] 87.5 µM | [17] 33.2 µM

COc1ccc(C2NC3=C(CCCC3)N2)cc1
inactive: [1] > 100 µM | [2] 53.8 µM | [3] > 100 µM | [4] > 100 µM | [6] 27.2 µM | [7] > 100 µM | [8] > 100 µM | [16] 79.4 µM | [9] 41.1 µM | [10] 87.5 µM | [11] > 100 µM | [12] 77.6 µM | [14] > 100 µM | [17] 42.6 µM

CCOC(=O)c1cccnc1C(OC(C)=O)OC(C)=O
inactive: [1] > 100 µM | [2] > 100 µM | [3] > 100 µM | [5] > 100 µM | [6] > 100 µM | [7] > 100 µM | [8] 74.8 µM | [16] > 100 µM | [9] > 100 µM | [10] > 100 µM | [11] > 100 µM | [12] > 100 µM | [13] > 100 µM | [14] > 100 µM | [17] > 100 µM | [15] > 100 µM

O=C1C(=O)N(c2ccc(Cl)cc2)C(=O)/C(=N/c2cccc3c(=O)[nH][nH]c(=O)c23)C1c1nc2ccccc2o1 (stereo not given)
inactive: [1] > 100 µM | [2] > 100 µM | [3] > 100 µM | [4] > 100 µM | [5] > 100 µM | [6] > 100 µM | [7] > 100 µM | [8] > 100 µM | [16] > 100 µM | [9] > 100 µM | [10] > 100 µM | [11] > 100 µM | [12] > 100 µM | [13] > 100 µM | [14] > 100 µM | [17] > 100 µM

NC(C(=O)O)c1ccc(C(=O)O)cc1 (stereo not given)
inactive: [1] > 100 µM | [2] > 100 µM | [3] > 100 µM | [4] > 100 µM | [5] > 100 µM | [6] > 100 µM | [7] > 100 µM | [8] > 100 µM | [9] > 100 µM | [10] > 100 µM | [11] > 100 µM | [12] > 100 µM | [13] > 100 µM | [14] > 100 µM | [17] > 100 µM | [15] > 100 µM

CC1OC(OCC2OC(Oc3c(-c4ccc(O)cc4)oc4cc(O)cc(O)c4c3=O)C(OC3OCC(O)(CO)C3O)C(O)C2O)C(O)C(O)C1O (stereo not given)
inactive: [1] > 100 µM | [2] 44.6 µM | [3] > 100 µM | [4] > 100 µM | [5] > 100 µM | [6] > 100 µM | [7] > 100 µM | [8] > 100 µM | [16] > 100 µM | [9] 90.8 µM | [10] > 100 µM | [11] > 100 µM | [12] > 100 µM | [13] > 100 µM | [14] > 100 µM | [17] > 100 µM

COC1CC(OS(=O)(=O)c2ccc([N+](=O)[O-])cc2)C(OC(=O)c2ccccc2)C(C)O1 (stereo not given)
inactive: [2] > 100 µM | [3] > 100 µM | [4] > 100 µM | [5] > 100 µM | [6] > 100 µM | [7] > 100 µM | [8] > 100 µM | [16] 88.7 µM | [9] 32.2 µM | [10] 54.6 µM | [11] > 100 µM | [13] > 100 µM | [14] > 100 µM | [15] 39.1 µM

COC(=O)CSc1nnc(-c2ccccc2)[nH]1
inactive: [1] > 100 µM | [2] > 100 µM | [4] > 100 µM | [5] > 100 µM | [6] > 100 µM | [7] > 100 µM | [8] > 100 µM | [16] > 100 µM | [9] > 100 µM | [10] > 100 µM | [11] > 100 µM | [12] > 100 µM | [13] > 100 µM | [14] > 100 µM | [17] > 100 µM

CCOC(=O)CC1COc2ccc3c(c21)OCO3 (stereo not given)
inactive: [1] > 100 µM | [2] > 100 µM | [3] > 100 µM | [4] > 100 µM | [5] > 100 µM | [6] > 100 µM | [7] > 100 µM | [8] > 100 µM | [16] > 100 µM | [9] > 100 µM | [10] > 100 µM | [11] > 100 µM | [12] > 100 µM | [14] > 100 µM | [17] > 100 µM
